Reference: patent US11597724B2, “Herbicidally active 3-phenylisoxazoline-5-carboxamides of tetrahydro and dihydrofuran carboxylic acids and esters” (Bayer Aktiengesellschaft, priority 2017, dated 2023)

How the values were obtained:
Type in all cases: in vivo
Viola tricolor = assay: Post-emergence herbicidal activity against VIOTR; settings: dosage 320 g/ha, rated about 3 weeks after treatment; for pest or weed control at 320 g/ha: Viola tricolor, 504 h
Summary of the method: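 Greenhouse plants in sandy loam treated at one-leaf stage, 2 to 3 weeks after sowing, by spraying WP or EC formulations with 0.5% additive at 600 l/ha water. Activity rated visually after about 3 weeks versus untreated controls, 100% = plants dead, 0% = like control.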

Alopecurus myosuroides = assay: Pre-emergence herbicidal activity against ALOMY; settings: dosage 80 g/ha, scored visually after about 3 weeks vs untreated controls (100% = plants have died, 0% = like control plants); for pest or weed control at 80 g/ha: Alopecurus myosuroides, 504 h
Text: (§1) 1. Pre-Emergence Herbicidal Action and Crop Plant Compatibility Seeds of monocotyledonous and dicotyledonous weed plants and crop plants are placed in plastic or wood fiber pots and covered with soil. The compounds of the invention, formulated in the form of wettable powders (WP) or as emulsion concentrates (EC), are then applied onto the surface of the covering soil as aqueous suspension or emulsion with addition of 0.5% additive at a water application rate of 600 l/ha (converted). After the treatment, the pots are placed in a greenhouse and kept under good growth conditions for the trial plants. After about 3 weeks, the effect of the preparations is scored visually in comparison with untreated controls as percentages. For example, 100% activity=the plants have died, 0% activity=like control plants. ABUTH: Abutilon theophrasti ALOMY: Alopecurus myosuroides

Pharbitis purpurea = assay: Post-emergence herbicidal activity against PHBPU; settings: dosage 320 g/ha, rated about 3 weeks after treatment; for pest or weed control at 320 g/ha: Ipomoea purpurea, 504 h
Summary of the method: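 Greenhouse-grown plants sprayed post-emergence at the one-leaf stage, 2 to 3 weeks after sowing, with WP or EC formulations plus 0.5% additive at 600 l/ha water. Activity rated visually after about 3 weeks versus untreated controls (100% = plants dead, 0% = like control).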

Amaranthus retroflexus = assay: Pre-emergence herbicidal activity against AMARE; settings: dosage 80 g/ha; for pest or weed control at 80 g/ha: Amaranthus retroflexus, 504 h
Text: as §1, with “AMARE: Amaranthus retroflexus AVEFA: Avena fatua” for “ABUTH: Abutilon theophrasti ALOMY: Alopecurus myosuroides”

Setaria viridis = assay: Post-emergence herbicidal activity against SETVI; settings: Setaria viridis, 504 h, dosage 320 g/ha, rated about 3 weeks after treatment
Summary of the method: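 Greenhouse weeds in sandy loam were sprayed at the one-leaf stage, 2–3 weeks after sowing, with WP or EC formulations plus 0.5% additive at 600 l/ha water. About 3 weeks later, damage was rated visually against untreated controls, where 100% means plants dead and 0% means like control.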

Hordeum murinum = assay: Post-emergence herbicidal activity against HORMU; settings: Hordeum murinum, 504 h, dosage 320 g/ha
Summary of the method: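 Greenhouse pot plants sprayed post-emergence at one-leaf stage (2-3 weeks after sowing) with WP or EC formulations, 0.5% additive, 600 l/ha water. Visual rating about 3 weeks later versus untreated controls: 100% = plants dead, 0% = like control.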

SMILES	pest or weed control at 320 g/ha (Viola tricolor)	pest or weed control at 80 g/ha (Alopecurus myosuroides)	pest or weed control at 320 g/ha (Pharbitis purpurea)	pest or weed control at 80 g/ha (Amaranthus retroflexus)	pest or weed control at 320 g/ha (Setaria viridis)	pest or weed control at 320 g/ha (Hordeum murinum)	Post-emergence herbicidal activity against VIOTR in % (Viola tricolor)	Pre-emergence herbicidal activity against ALOMY in % (Alopecurus myosuroides)	Post-emergence herbicidal activity against PHBPU in % (Pharbitis purpurea)	Pre-emergence herbicidal activity against AMARE in % (Amaranthus retroflexus)
COC(=O)[C@H]1C[C@@H](NC(=O)[C@@]2(C)CC(c3cc(F)cc(F)c3)=NO2)CO1 (mixture of isomers) [I-09, methyl cis-4-[[(5R)-3-(3,5-difluorophenyl)-5-methyl-4H-isoxazole-5-carbonyl]amino]tetrahydrofuran-2-carboxylate]	80%	100%	90%	80%	80%					
COC(=O)[C@H]1C[C@H](NC(=O)[C@@]2(C)CC(c3cc(F)cc(F)c3)=NO2)CO1 (mixture of isomers) [I-55, methyl trans-4-[[(5R)-3-(3,5-difluorophenyl)-5-methyl-4H-isoxazole-5-carbonyl]amino]tetrahydrofuran-2-carboxylate]	90%		90%		90%	100%				
C=C[C@]1(C(=O)N[C@@H]2CO[C@@H](C(=O)OC)C2)CC(c2cc(F)cc(F)c2)=NO1 (mixture of isomers) [I-56, methyl trans-4-[[(5S)-3-(3,5-difluorophenyl)-5-vinyl-4H-isoxazole-5-carbonyl]amino]tetrahydrofuran-2-carboxylate]	90%		90%		90%	90%				
CC(C)(C)OC(=O)[C@H]1C[C@@H](NC(=O)C2(C)CC(c3cccc(F)c3)=NO2)CO1 (mixture of isomers) [I-33, tert-butyl cis-4-[[(5RS)-3-(3-fluorophenyl)-5-methyl-4H-isoxazole-5-carbonyl]amino]tetrahydrofuran-2-carboxylate]		100%	90%		90%	90%				
CC1(C(=O)N[C@H]2CO[C@@H](C(=O)OCc3ccccc3)C2)CC(c2cccc(F)c2)=NO1 (mixture of isomers) [I-34, benzyl cis-4-[[(5RS)-3-(3-fluorophenyl)-5-methyl-4H-isoxazole-5-carbonyl]amino]tetrahydrofuran-2-carboxylate]		100%	90%		90%	100%				
COC(=O)[C@H]1C[C@@H](NC(=O)C2(C)CC(c3cc(F)cc(F)c3)=NO2)CO1 (relative stereo) [I-01, methyl cis-4-[[3-(3,5-difluorophenyl)-5-methyl-4H-isoxazole-5-carbonyl]amino]tetrahydrofuran-2-carboxylate]	90%	100%	90%		90%					
C=CC1(C(=O)N[C@H]2CO[C@@H](C(=O)OC)C2)CC(c2cc(Cl)cc(Cl)c2)=NO1 (relative stereo) [I-03, methyl cis-4-[[3-(3,5-dichlorophenyl)-5-vinyl-4H-isoxazole-5-carbonyl]amino]tetrahydrofuran-2-carboxylate]			90%	80%	80%					
COC(=O)[C@H]1C[C@@H](NC(=O)C2(C)CC(c3cc(C)cc(Br)c3)=NO2)CO1 (relative stereo) [I-04, methyl cis-4-[[3-(3-bromo-5-methylphenyl)-5-methyl-4H-isoxazole-5-carbonyl]amino]tetrahydrofuran-2-carboxylate]	80%		90%		80%					
COC(=O)[C@H]1C[C@@H](NC(=O)C2(OC)CC(c3cc(F)cc(F)c3)=NO2)CO1 (relative stereo) [I-05, methyl cis-4-[[3-(3,5-difluorophenyl)-5-methoxy-4H-isoxazole-5-carbonyl]amino]tetrahydrofuran-2-carboxylate]			90%		90%					
COC(=O)[C@H]1C[C@@H](NC(=O)C2(C(F)(F)F)CC(c3cc(F)cc(F)c3)=NO2)CO1 (relative stereo) [I-06, methyl cis-4-[[3-(3,5-difluorophenyl)-5-(trifluoromethyl)-4H-isoxazole-5-carbonyl]amino]tetrahydrofuran-2-carboxylate]	90%	80%	90%		80%					
C=CC1(C(=O)N[C@H]2CO[C@@H](C(=O)OC)C2)CC(c2cccc(F)c2)=NO1 (relative stereo) [I-07, methyl cis-4-[[3-(3-fluorophenyl)-5-vinyl-4H-isoxazole-5-carbonyl]amino]tetrahydrofuran-2-carboxylate]			90%	90%	80%					
COC(=O)[C@H]1C[C@@H](NC(=O)C2(OC)CC(c3cc(C)cc(Br)c3)=NO2)CO1 (relative stereo) [I-08, methyl cis-4-[[3-(3-bromo-5-methylphenyl)-5-methoxy-4H-isoxazole-5-carbonyl]amino]tetrahydrofuran-2-carboxylate]	80%		90%		80%					
COC(=O)[C@H]1C[C@@H](NC(=O)C2(OC)CC(c3ccccc3)=NO2)CO1 (relative stereo) [I-14, methyl cis-4-[(5-methoxy-3-phenyl-4H-isoxazole-5-carbonyl)amino]tetrahydrofuran-2-carboxylate]			80%		80%					
C=CC1(C(=O)N[C@H]2CO[C@@H](C(=O)O)C2)CC(c2cc(F)cc(F)c2)=NO1 (relative stereo) [I-21, cis-4-[[3-(3,5-difluorophenyl)-5-vinyl-4H-isoxazole-5-carbonyl]amino]tetrahydrofuran-2-carboxylic acid]	80%	100%	80%	100%	80%					
COC(=O)C1COCC1NC(=O)C1(C)CC(c2cc(F)cc(F)c2)=NO1 (centres unmarked) [I-19, methyl 4-[[3-(3,5-difluorophenyl)-5-methyl-4H-isoxazole-5-carbonyl]amino]tetrahydrofuran-3-carboxylate]	80%	90%	80%		80%					
C=C[C@]1(C(=O)NC2COCC2C(=O)OC)CC(c2cc(F)cc(F)c2)=NO1 (stereo partly drawn) [I-26, methyl 4-[[(5S)-3-(3,5-difluorophenyl)-5-vinyl-4H-isoxazole-5-carbonyl]amino]tetrahydrofuran-3-carboxylate]	80%	100%	80%	100%	80%					
COC(=O)C1=C[C@H](NC(=O)C2(C)CC(c3cccc(F)c3)=NO2)CO1 (stereo partly drawn) [I-39, methyl (3S)-3-[[3-(3-fluorophenyl)-5-methyl-4H-isoxazole-5-carbonyl]amino]-2,3-dihydrofuran-5-carboxylate]	80%		90%		90%	100%				
COC(=O)[C@@]1(OC)C[C@@H](NC(=O)C2(C)CC(c3cccc(F)c3)=NO2)CO1 (stereo partly drawn) [I-47, methyl (2R,4R)-4-[[3-(3-fluorophenyl)-5-methyl-4H-isoxazole-5-carbonyl]amino]-2-methoxytetrahydrofuran-2-carboxylate]	80%		90%		80%	100%				
COC(=O)C1CC(NC(=O)C2(C(C)(F)F)CC(c3cc(F)cc(F)c3)=NO2)CO1 (centres unmarked) [I-49]							80%	100%	80%	100%
